Results on four compounds are retold here after patent US7449567B2, “Isolation and identification of mouse and human transcription control elements associated with cytochrome expression” (Xenogen Corporation, priority 2001, dated 2008).

One data set concerns the target T1, hPXR (Homo sapiens, UniProt O75469).
T1 sequence (O75469 1-434): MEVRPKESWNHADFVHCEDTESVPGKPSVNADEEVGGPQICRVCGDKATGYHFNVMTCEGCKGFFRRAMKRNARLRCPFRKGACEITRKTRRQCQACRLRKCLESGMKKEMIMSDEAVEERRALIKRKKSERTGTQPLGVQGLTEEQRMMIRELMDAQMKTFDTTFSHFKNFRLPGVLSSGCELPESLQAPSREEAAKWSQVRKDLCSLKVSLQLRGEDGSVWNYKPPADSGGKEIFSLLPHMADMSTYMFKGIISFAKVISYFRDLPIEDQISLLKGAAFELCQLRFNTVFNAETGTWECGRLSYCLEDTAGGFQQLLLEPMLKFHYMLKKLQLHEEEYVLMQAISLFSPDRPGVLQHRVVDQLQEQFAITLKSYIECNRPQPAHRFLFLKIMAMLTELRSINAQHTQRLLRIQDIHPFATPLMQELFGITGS
As to conditions: cited from earlier work.

In data set [1] the test system is CYP3A4-luc transgene (13 kb human CYP3A4 promoter). To be noted: mouse, in vivo. As for the experimental part: General methods for evaluating the animal lines were as follows. Tg founders were bred to wild-type FvB mice to generate F1 mice. A female transgenic founder was bred to a wild-type FvB male and a male transgenic founder was bred to a few wild-type FvB females.
A Luciferin stock solution of 30 mg/ml was prepared in sterile PBS.
The route of administration for the drugs and for luciferin was IP. The dose of reagent administration of luciferin substrate and drugs was as follows. Dose of luciferin: 150 mg/kg of a 30 mg/ml luciferin stock was injected IP five minutes before imaging in the IVIS™ (Xenogen Corporation, Alameda, Calif.) system. […] DMSO was administrated as a vehicle control.
Following luciferin administration the animals were anesthetized using gas anesthesia (Isoflurane) and placed in an IVIS™ box (Xenogen Corporation, Alameda, Calif.) for imaging. All animals were imaged before and after chemical administration, and imaged at high resolution (binning 2) for 10 seconds or 1 minute, for males and females, respectively.
NT is the non-treated control. Before each imaging session, mice were injected i.p. with 150 mg/kg luciferin. […] Measurements on each mouse were performed as described above. […] Measurements on each mouse were performed as described above.

Setting [2] is: cell culture, Xie et al. 2000, Goodwin et al. 1999.

SMILES strings stand for the structures. Read-outs that look alike come from different tables or passages of the source.

For `Clc1ccccc1C(c1ccccc1)(c1ccccc1)n1ccnc1` [Clotrim, clotrimazole], the “induction of CYP3A4 expression via hPXR” value on hPXR (setting [2]) is listed as “relatively better inducers of CYP3A4 expression”. For the same compound, the “induction of the transgene CYP3A4-luc” value in data set [1] (FVB (CYP3A4-luc transgenic, line #82)) is on record as “induced the transgene CYP3A4-luc better than other three compounds”.
With `CC(=O)[C@H]1[C@H](C#N)C[C@H]2[C@@H]3CC=C4C[C@@H](O)CC[C@]4(C)[C@H]3CC[C@@]21C` [PCN, 5-pregnene-3b-OL-20-ONE-16a-Carbonitrile], the “induction of CYP3A4 expression via hPXR” value on hPXR (setting [2]) is “weaker inducers”. Also, in data set [1], the “induction of the transgene CYP3A4-luc” value is “induced the transgene CYP3A4-luc better than other three compounds”.
With `CCC1(c2ccccc2)C(=O)NC(=O)NC1=O` [Phenob, phenobarbitol], on hPXR, the “induction of CYP3A4 expression via hPXR” value is given as “relatively better inducers of CYP3A4 expression”. In data set [1], the “induction of the transgene CYP3A4-luc” value is reported as “induced the transgene to various degrees”.
For the compound `CC(=O)[C@H]1CC[C@H]2[C@@H]3CC=C4C[C@@H](O)CC[C@]4(C)[C@H]3CC[C@]12C` [Preg, pregnenolone], at hPXR, the “induction of CYP3A4 expression via hPXR” value is “weaker inducers”. For the same compound, the “induction of the transgene CYP3A4-luc” value in data set [1] was “all drugs except for Preg induced the transgene”.
